The values that follow come from patent publication US10463660B2, “Benzoic acid, benzoic acid derivatives and heteroaryl carboxylic acid conjugates of oxymorphone, prodrugs, methods of making and use thereof” (KemPharm, Inc., priority 2014, dated 2019).

Data set [1] is described as follows: Oral PK profiles of conjugated oxymorphone in rats (released oxymorphone in plasma by LC-MS/MS). In kind it is in vivo, Sprague-Dawley rats. Conditions: for %-AUC / %-Cmax / %-Tmax: 2 mg/kg oxymorphone equivalent, relative to the OM control; for AUC / Cmax / Tmax: conjugate equivalent to 2 mg/kg freebase oxymorphone, released oxymorphone in plasma. As for the experimental part:
Oral PK curves were determined for a number of prodrug conjugates of the present technology. Rats were orally administered at an amount of the conjugate equivalent to 2 mg/kg of freebase oxymorphone and the plasma concentrations of released oxymorphone were measured over time by LC-MS/MS.
All PK parameters from the above experiments were calculated and expressed as % change from the control (OM). These PK parameters included maximal plasma concentration (Cmax), area under curve (AUC), and time at which Cmax occurred (Tmax).

The nature of data set [2]: Intranasal PK profiles of conjugated oxymorphone in rats (released oxymorphone in plasma by LC-MS/MS). In kind it is in vivo. Conditions: for %-AUC / %-Cmax / %-Tmax: 0.2 mg/kg oxymorphone equivalent, relative to the OM control; for AUC / Cmax / Tmax: conjugate equivalent to 0.2 mg/kg freebase oxymorphone, released oxymorphone in plasma. As for the experimental part:
Intranasal PK curves were determined for a number of prodrug conjugates of the present technology. Rats were intranasally administered at an amount of the conjugate equivalent to 0.2 mg/kg of freebase oxymorphone and the plasma concentrations of released oxymorphone were measured over time by LC-MS/MS.
All PK parameters from the above experiments were calculated and expressed as % change from the control (OM). These PK parameters included maximal plasma concentration (Cmax), area under curve (AUC), and time at which Cmax occurred (Tmax). These parameters are shown in Table 2 relative to the OM controls.

As usually defined, the AUC is concentration integrated over time. As usually defined, the Cmax is the highest concentration seen after dosing. Broadly, the Tmax is the time at which the peak concentration occurs.

As to `COc1ccc(C(=O)OC2=CCC3(O)C4Cc5ccc(OC(=O)c6ccc(OC)cc6)c6c5C3(CCN4C)C2O6)cc1` (stereo not drawn) [3,6-(4-MeO-Bz)2-OM], in data set [1], the “%-AUC” value was 110%, the “%-Cmax” value is given as 121%, the “%-Tmax” value was found to be 35% and the AUC worked out at 26.0 ng·h/mL. Also, in data set [1], the Cmax is recorded as 10.6 ng/mL and the Tmax turned out to be 15 min. Further, in data set [2], the “%-AUC” value is given as 30%, the “%-Cmax” value came out at 9%, the “%-Tmax” value worked out at 167% and the AUC was found to be 24.6 ng·h/mL. For the same compound, in data set [2], the Cmax stood at 33.5 ng/mL and the Tmax turned out to be 8.4 min.

Take `CN1CC[C@]23c4c5ccc(OC(=O)/C=C/c6ccccc6)c4O[C@H]2C(OC(=O)/C=C/c2ccccc2)=CC[C@@]3(O)[C@H]1C5` [3,6-(Cinnamate)2-OM]: in data set [1], the “%-AUC” value is recorded as 38%, the “%-Cmax” value is 43%, the “%-Tmax” value is listed as 50% and the AUC came out at 14.5 ng·h/mL. Moreover, in data set [1], the Cmax worked out at 8.7 ng/mL and the Tmax was 45 min.

On to `CC(=O)Oc1ccccc1C(=O)Oc1ccc2c3c1OC1C(=O)CCC4(O)C(C2)N(C)CCC314` (stereo not drawn) [3-(2-AcO-Bz)-OM], for which, in data set [1], the “%-AUC” value is listed as 72%, the “%-Cmax” value was 78%, the “%-Tmax” value turned out to be 25% and the AUC was found to be 22.5 ng·h/mL. Besides, in data set [1], the Cmax was found to be 15.8 ng/mL and the Tmax was 15 min.

Take `CN1CC[C@]23c4c5ccc(OC(=O)c6ccccc6O)c4O[C@H]2C(=O)CC[C@@]3(O)[C@H]1C5` [3-(2-OH-Bz)-OM]: in data set [1], the “%-AUC” value stood at 72%, the “%-Cmax” value is reported as 74%, the “%-Tmax” value is on record as 62% and the AUC is 31.3 ng·h/mL. Further, in data set [1], the Cmax is on record as 17.5 ng/mL and the Tmax amounted to 39 min. In data set [2], the “%-AUC” value came out at 66%, the “%-Cmax” value is reported as 55%, the “%-Tmax” value stood at 100% and the AUC amounted to 65.9 ng·h/mL. Besides, in data set [2], the Cmax is recorded as 276.1 ng/mL and the Tmax came to 4.8 min.

As for `COc1ccc(C(=O)Oc2ccc3c4c2O[C@H]2C(=O)CC[C@@]5(O)[C@@H](C3)N(C)CC[C@]425)cc1` [3-(4-MeO-Bz)-OM], in data set [1], the “%-AUC” value was 100%, the “%-Cmax” value was determined as 99%, the “%-Tmax” value is on record as 100% and the AUC came out at 43.2 ng·h/mL. In addition, in data set [1], the Cmax worked out at 23.6 ng/mL and the Tmax was determined as 63 min. Also, in data set [2], the “%-AUC” value is given as 76%, the “%-Cmax” value turned out to be 61%, the “%-Tmax” value amounted to 100% and the AUC was found to be 63.1 ng·h/mL. Moreover, in data set [2], the Cmax came out at 244.9 ng/mL and the Tmax was 4.8 min.

For the compound `CN1CC[C@]23c4c5ccc(OC(=O)/C=C/c6ccccc6)c4O[C@H]2C(=O)CC[C@@]3(O)[C@H]1C5` [3-Cinnamate-OM], in data set [1], the “%-AUC” value was 190%, the “%-Cmax” value worked out at 236%, the “%-Tmax” value worked out at 136% and the AUC worked out at 36.8 ng·h/mL. For the same compound, in data set [1], the Cmax is 19.0 ng/mL and the Tmax came out at 90 min.

`CN1CC[C@]23c4c5ccc(OC(=O)c6cc(-c7ccc(F)cc7F)ccc6O)c4O[C@H]2C(=O)CC[C@@]3(O)[C@H]1C5` [3-Diflunisal-OM]: in data set [1], the “%-AUC” value worked out at 85%, the “%-Cmax” value worked out at 52%, the “%-Tmax” value is recorded as 340% and the AUC was 17.6 ng·h/mL. Also, in data set [1], the Cmax is 13.2 ng/mL and the Tmax came to 51 min. Besides, in data set [2], the “%-AUC” value is on record as 131%, the “%-Cmax” value is recorded as 41%, the “%-Tmax” value came out at 200% and the AUC was 108.2 ng·h/mL. Also, in data set [2], the Cmax came to 151.5 ng/mL and the Tmax turned out to be 10.2 min.

`CC(C(=O)Oc1ccc2c3c1O[C@H]1C(=O)CC[C@@]4(O)[C@@H](C2)N(C)CC[C@]314)c1cccc(Oc2ccccc2)c1` (stereo partly drawn) [3-Fenoprofen-OM]: in data set [1], the “%-AUC” value was 59%, the “%-Cmax” value stood at 52%, the “%-Tmax” value stood at 100% and the AUC worked out at 14.8 ng·h/mL. Also, in data set [1], the Cmax came out at 9.6 ng/mL and the Tmax is 36 min.

Consider `CC(C(=O)Oc1ccc2c3c1O[C@H]1C(=O)CC[C@@]4(O)[C@@H](C2)N(C)CC[C@]314)c1cccc(C(=O)c2ccccc2)c1` (stereo partly drawn) [3-Ketoprofen-OM], for which, in data set [1], the “%-AUC” value was determined as 159%, the “%-Cmax” value came to 150%, the “%-Tmax” value is on record as 30% and the AUC is 49.7 ng·h/mL. Besides, in data set [1], the Cmax is listed as 30.3 ng/mL and the Tmax was 18 min.

Turning to `COc1cc(C(=O)Oc2ccc3c4c2O[C@H]2C(=O)CC[C@@]5(O)[C@@H](C3)N(C)CC[C@]425)ccc1O` [3-Vanillate-OM], in data set [1], the “%-AUC” value came out at 92%, the “%-Cmax” value is listed as 97%, the “%-Tmax” value was 46% and the AUC worked out at 14.7 ng·h/mL. In data set [1], the Cmax came out at 7.5 ng/mL and the Tmax amounted to 48 min.

Turning to `CN1CC[C@]23c4c5ccc(O)c4O[C@H]2C(OC(=O)c2ccccc2O)=CC[C@@]3(O)[C@H]1C5` [6-(2-OH-Bz)-OM], in data set [1], the “%-AUC” value is listed as 134%, the “%-Cmax” value was found to be 157%, the “%-Tmax” value came out at 60% and the AUC was 50.6 ng·h/mL. Besides, in data set [1], the Cmax is 31.6 ng/mL and the Tmax is 45 min.

Consider `CN1CC[C@]23c4c5ccc(O)c4O[C@H]2C(OC(=O)c2cccc(N)c2)=CC[C@@]3(O)[C@H]1C5` [6-(3-ABz)-OM], for which, in data set [1], the “%-AUC” value was 46%, the “%-Cmax” value stood at 32%, the “%-Tmax” value came out at 276% and the AUC worked out at 16.7 ng·h/mL. For the same compound, in data set [1], the Cmax stood at 6.2 ng/mL and the Tmax came out at 114 min.

For `COc1ccc(C(=O)OC2=CC[C@@]3(O)[C@H]4Cc5ccc(O)c6c5[C@@]3(CCN4C)[C@H]2O6)cc1` [6-(4-MeO-Bz)-OM], in data set [1], the “%-AUC” value was 69%, the “%-Cmax” value is on record as 90%, the “%-Tmax” value came out at 22% and the AUC was 12.2 ng·h/mL. In data set [1], the Cmax came out at 8.6 ng/mL and the Tmax was 15 min.

Consider `CN1CC[C@]23c4c5ccc(O)c4O[C@H]2C(OC(=O)/C=C/c2ccccc2)=CC[C@@]3(O)[C@H]1C5` [6-Cinnamate-OM], for which, in data set [1], the “%-AUC” value is 77%, the “%-Cmax” value is given as 59%, the “%-Tmax” value is 225% and the area under the curve (AUC) worked out at 28.0 ng·h/mL. For the same compound, in data set [1], the Cmax is given as 11.4 ng/mL and the Tmax stood at 93 min.

For `CN1CC[C@]23c4c5ccc(O)c4O[C@H]2C(OC(=O)c2cc(-c4ccc(F)cc4F)ccc2O)=CC[C@@]3(O)[C@H]1C5` [6-Diflunisal-OM], in data set [1], the area under the curve (AUC) was determined as 67.2 ng·h/mL, the Cmax is 50.6 ng/mL and the Tmax was 15 min. For the same compound, in data set [2], the “%-AUC” value turned out to be 25%, the “%-Cmax” value turned out to be 11%, the “%-Tmax” value turned out to be 100% and the AUC is 20.7 ng·h/mL. In data set [2], the Cmax is 39.1 ng/mL and the Tmax was found to be 4.8 min.

Consider `CC(C(=O)OC1=CCC2(O)C3Cc4ccc(O)c5c4C2(CCN3C)C1O5)c1cccc(C(=O)c2ccccc2)c1` (stereo not drawn) [6-Ketoprofen-OM], for which, in data set [1], the “%-AUC” value is given as 99%, the “%-Cmax” value was 47%, the “%-Tmax” value was determined as 260% and the AUC worked out at 20.6 ng·h/mL. Besides, in data set [1], the peak concentration (Cmax) was 11.8 ng/mL and the Tmax is 39 min.

With `COc1cc(C(=O)OC2=CC[C@@]3(O)[C@H]4Cc5ccc(O)c6c5[C@@]3(CCN4C)[C@H]2O6)ccc1O` [6-Vanillate-OM], in data set [1], the “%-AUC” value was 56%, the “%-Cmax” value was 65%, the “%-Tmax” value was determined as 97% and the AUC is 8.9 ng·h/mL. In addition, in data set [1], the Cmax was 5.0 ng/mL and the Tmax worked out at 102 min.

Take `CN1CC[C@]23c4c5ccc(O)c4O[C@H]2C(OC(=O)c2ccccc2)=CC[C@@]3(O)[C@H]1C5` [Conjugate 6-Bz-OM]: in data set [1], the “%-AUC” value is recorded as 78%, the “%-Cmax” value is listed as 67%, the “%-Tmax” value turned out to be 129% and the AUC was 15.0 ng·h/mL. In data set [1], the Cmax is listed as 6.4 ng/mL and the Tmax turned out to be 108 min. Further, in data set [2], the “%-AUC” value turned out to be 42%, the “%-Cmax” value amounted to 36%, the “%-Tmax” value came out at 100% and the AUC came out at 35.1 ng·h/mL. Besides, in data set [2], the Cmax amounted to 145.2 ng/mL and the Tmax turned out to be 4.8 min.
